{
  "source": "patent US12291494B2",
  "about": "“Methods of treating fibrosis” (Nogra Pharma Limited, priority 2012, dated 2025)",
  "key": {"[1]": {"tested_on": "C57bl6 mice", "experiment": "DSS intestinal fibrosis study (Ex. 5/6): colon ratio weight/size", "format": "in vivo", "method": "This example describes an experiment to evaluate the effect of compound 34 on intestinal fibrosis. Chronic colitis was induced in C57bl6 mice by 3 cycles of 2.5% DSS (40,000-50,000 MW, TdB consultancy AB, Sweden) dissolved in sterile drinking water for 5 days followed by 7 days of regular drinking water.\nCompound 34 was used at its optimal dosage (30 mM) and administered by oral gavage daily after the second cycle of DSS and until euthanasia. Mice receiving DSS were checked twice a week for development of colitis by monitoring body weight. Euthanasia of mice was performed one week after the third cycle of DSS (see FIG. 5). Evaluation of the size and weight of the colon was evaluated post mortem.\nIntestinal fibrosis is characterized by a shortening and thickening of the colon and adherences. The measure of the ratio weight/size of the colon is an indicator of the level of inflammation and fibrosis. […] Compound 34 causes a 34% reduction in the profibrotic effect of DSS leading to a significant decrease ratio weight/size of the colon of 38.13±7.82 vs 44.98±6.31 (p<0.05) compared to DSS mice receiving the vehicle (FIG. 6A). Accordingly, it reduces the morphological signs of fibrosis such as the shortening and the thickening of the colon and it decreases the collagen deposit in the colon (FIG. 6B)."}, "[2]": {"tested_on": "α-SMA", "experiment": "DSS intestinal fibrosis study: Western blot of colon, α-SMA", "format": "in vivo, mice", "details": "whole colon, OD normalized with GAPDH, expressed as percentage of control groups; DSS 125.4 ± 19.45", "method": "(§1) For the Western blot analysis, 0.5 cm of frozen colonic samples were homogenized in RIPA Buffer containing 50 mM Tris HCl pH 7.6, 150 mM NaCl, 1.5 mM MgCl2, 5 mM EDTA, 1% Triton-X and 10% Glycerol, supplemented with 100 mM Sodium Fluoride (NaF), 2 mM Sodium Orthovanadate (Na3VO4), 10 mM Sodium Pyrophosphate (NaPPi), 1 mM phenylmethanesulphone (PMSF) and a classical protease-inhibitor cocktail containing 10 μg/mL Leupeptin and Aprotinin.\n(§2) For each sample, 30 μg of protein was separated by PAGE and electroblotted. Nitrocellulose membranes (100% pure) were incubated (according with a specific protocol for each antibody) with primary antibodies directed against CTGF, Collagen-I and GAPDH (purchased from Abcam, Cambridge, UK; 1:1000 for 2 h at RT), diluted in 5% non-fat milk in 0.1% TBS-t. […] Optical density of target bands was determined using a computer-assisted densitometer and the ImageJ public domain software (W. S., Rasband, ImageJ, U. S. National Institutes of Health, Bethesda, MD; http://rsb.info.nih.gov/ij/, 1997-2011). Tissue levels were expressed as units of Optical Density (OD) per quantity of total proteins, normalized with internal control GAPDH and the results were expressed as percentage of control groups."}, "[3]": {"tested_on": "TGF-β1", "experiment": "DSS intestinal fibrosis study: Western blot of colon, TGF-β1", "format": "in vivo, mice", "details": "whole colon, OD normalized with GAPDH, expressed as percentage of control groups; DSS 153.6 ± 26.25", "method": "as §1, §2"}, "[4]": {"tested_on": "Male C57bl6 mice", "experiment": "CCl4-induced liver fibrosis: histology (Metavir score)", "format": "in vivo", "method": "Liver fibrosis was induced in Male C57bl6 mice (Charles River, l'Arbresle, France) by injection of carbon tetrachloride (CCl4). The C57bl6 mice weighed 22-25 g and were maintained in laboratory conditions for 1 week before experiment. Animals were housed 5 per cage with food and water available ad libitum.\nThe effectiveness of compound 34 (specific ligand of PPARg) as compared to JWH-133 (anti-fibrogenic agent) was evaluated. Compound 34 was administered orally in combination with CCl4 injections for ca. 5 weeks. Compound 34 was dosed daily at 200 uL of a 30 mM solution. JWH-133 was administered daily via intraperitoneal injections at 3 mg/kg (dose volume=100 uL). The model of liver fibrosis is induced by chronic exposure to increased dosages of CCl4 for 5 weeks. The first week, mice received an intraperitoneal injection of CCl4, resuspended in olive oil, at the dosage of 80 μl/kg of mice body weight twice a week. At week 2, 3 injections of CCl4 at the dosage of 160 μl/kg were performed every two days. At week 3, 3 injections of CCl4 at the dosage of 240 μl/kg were performed every two days. At week 4, 3 injections of CCl4 at the dosage of 320 μl/kg were performed every two days. Mice were euthanized, at week 5, 3 days after the last CCl4 administration.\nThe formalin-fixed liver tissue was processed and 5 μm thick paraffin sections were stained with hematoxylin and eosin (H&E) and Picrosirius red staining (specific coloration for collagen in tissue sections) to evaluate the degree of fibrosis in the liver. Each section was analyzed blindly by 3 different experimenters for the quantification of the degree of fibrosis for each lobe of the liver (5) using the Metavir score (see FIG. 2A for Metavir Score chart). The photographs seen in FIG. 2B were obtained with a 20× objective."}, "[5]": {"tested_on": "main markers of fibrosis (Collagen I-III, α-SMA, TGF-β1, Smad3, CTGF)", "experiment": "DSS chronic colitis (Ex. 7): immunohistochemistry of colon", "format": "in vivo, mice", "details": "DSS+GED vs DSS, listed as GED", "method": "Tissue specimens from the colon, dissected and fixed in fresh 4% formaldehyde (FA)/PBS solution for 3 hours at room temperature, were dehydrated in a graded ethanol series, and embedded in low-temperature-fusion paraffin. 3-μm-thick sections were incubated in a solution of methanol and 3% hydrogen peroxide for 45 min.\nSamples were incubated overnight with specific antibodies against α-smooth muscle actin (α-SMA, Abcam), collagen types I-III (Abcam), TGF-β1 (Abcam), connective tissue growth factor (CTGF) (Abcam), pSmad3 and Smad3 (Cell Signaling), Smad7 (Imgenex) PPARγ (Cell Signaling). The samples were washed 5 min with PBS and incubated with streptavidin-biotin-peroxidase conjugated secondary antibody (Dako LSAB Corporation, cod K0675, Dako-Cytomation, Milano). After one wash in PBS for 10 min the sections are subject to incubation with 3,3-diaminobenzidine-tetrahydrochloride for 1-3 min. The counterstaining of nuclei was obtained by Hematoxilin Eosin. The specificity of immune reaction was effected keeping off the primary antibodies. Finally the samples were stained with hematoxylin of Mayer and observed under the Olympus BX51 Light Microscope (Olympus, Optical Co. Ltd., Tokyo, Japan)."}},
  "note": "Entries after “also recorded” stand apart in the source; their conditions may differ.",
  "data": [
    {"smiles": "COC(Cc1ccc(N)cc1)C(=O)O", "note": "(racemic) [Compound 34, (±)-2-methoxy-3-(4′-aminophenyl) propionic acid]", "values": [
      {"measurement": "ratio weight/size of the colon", "setting": "[1]; compound 34 30 mM 200 uL oral gavage daily day 13-36, DSS vehicle 44.98±6.31, control 20.11±3.91", "value": "38.13±7.82"},
      {"measurement": "reduction in the profibrotic effect of DSS (colon ratio weight/size)", "setting": "[1]; compound 34 30 mM oral gavage", "value": 34, "unit": "%"},
      {"measurement": "α-SMA (Western blot)", "setting": "[2]", "value": "97.88 ± 15.66"},
      {"measurement": "TGF-β1 (Western blot)", "setting": "[3]", "value": "130.5 ± 28.02"},
      {"measurement": "decrease of the fibrotic score (adapted Metavir score) compared to untreated animals", "setting": "[4]; FIG. 3B", "value": 12.5, "unit": "%"},
      {"measurement": "mean Metavir score (FIG. 3A)", "setting": "[4]; compound 34 30 mM 200 uL oral daily, JWH-133 3 mg/kg i.p. daily, CCl4 vehicle group 2.5±0.5", "value": "2.1±0.2"},
      {"measurement": "degree of fibrosis (Metavir)", "setting": "[4]; result in words", "value": "decrease in the degree of fibrosis from severe to moderate fibrosis"},
      {"measurement": "Collagen I-III and α-SMA (immunohistochemistry)", "setting": "[5]; FIG. 13A, 13B", "value": "marked reduction; also recorded: significant reduction"},
      {"measurement": "TGF-β1, Smad, CTGF (immunohistochemistry)", "setting": "[5]; FIG. 15 / data not shown", "value": "marked reduction; also recorded: significant reduction"}
    ]}
  ]
}
